# Where two headings read alike, the source gives them in different places.
# Key:
# [1] = target: HDAC1 (Homo sapiens, UniProt Q13547); assay: HDAC enzyme inhibitory activity, FRET method; format: biochemical
# Procedure: (§2) The compounds of the present disclosure were assayed for enzyme inhibitory activity against various subtypes of HDAC enzymes by the FRET method. The various subtypes of HDAC enzymes were obtained either through purification or direct purchase of assay kits.
# (§3) The specific method was as follows: The enzyme was added to a 384-well plate, and a reaction buffer was added to the control well. Serially diluted DMSO sample solutions were added to the reaction wells, and the plate was incubated at room temperature for 15 min. Then a chromogenic agent was added to stop the reaction, and fluorescence was generated. The fluorescence intensity was measured using an EnVision multi-label microplate reader (excitation: 355 nm, emission: 460 nm). The endpoint value was read after the color development reached stability. The inhibition IC50 of the compounds was calculated using GraphPad Prism4 software relative to DMSO.
# [2] = tested on: Mouse colon cancer CT-26 cells; conditions: for Tumor response, number of mice (CR/PR/SD): 6 mice per group; for TGI(%): QD for 14 consecutive days, PO
# Procedure: Female BALB/c mice (aged 6 weeks, 18-22 g) were provided by Vital River Laboratory Animal Technology Co., Ltd. (China) and used one week after quarantine and acclimation. All animals were kept in a room at 23±2 °C with a relative humidity of 50±5%, artificial lighting was provided from 08:00 to 20:00 every day, and the air was exchanged 13-18 times per hour.
# Mouse colon cancer CT-26 cells were cultured conventionally in 1640 medium containing 10% fetal bovine serum in an incubator at 37 °C with 5% CO2. After being subcultured, the cells were collected when they reached the desired amount. The BALB/c mice were subcutaneously injected with 2 × 10^5 CT-26 cells on the right side to form tumors. After the tumors grew to about 100 mm^3, the animals were randomly grouped for administration. Tumor volumes were measured with a caliper on day 3, day 7, day 10, day 14, day 17, and day 21 after the administration. The ability of the compounds to inhibit tumor growth was evaluated according to the tumor growth inhibition rate (TGI) = 1 - (tumor volume on day 28 in treatment group - tumor volume on day 1 in treatment group)/(tumor volume on day 28 in control group - tumor volume on day 1 in control group). The toxicity of the compounds was evaluated according to the body weight and state of the mice.
# [3] = target: HDAC2 (Homo sapiens, UniProt Q92769); assay: HDAC enzyme inhibitory activity, FRET method; format: biochemical
# [4] = target: HDAC3 (Homo sapiens, UniProt O15379); assay: HDAC enzyme inhibitory activity, FRET method; format: biochemical
# Procedure: as §2, §3
# [5] = tested on: Mouse colon cancer MC38 cells; conditions: MC-38
# Procedure: Female C57BL6N mice (aged 6 weeks, 18-22 g) were provided by Vital River Laboratory Animal Technology Co., Ltd. (China) and used one week after quarantine and acclimation. All animals were kept in a room at 23±2 °C with a relative humidity of 50±5%, artificial lighting was provided from 08:00 to 20:00 every day, and the air was exchanged 13-18 times per hour.
# Mouse colon cancer MC38 cells were cultured conventionally in 1640 medium containing 10% fetal bovine serum in an incubator at 37 °C with 5% CO2. After being subcultured, the cells were collected when they reached the desired amount. The C57BL6N mice were subcutaneously injected with 2 × 10^6 MC38 cells on the right side to form tumors. After the tumors grew to about 100 mm^3, the animals were randomly grouped for administration. Tumor volumes were measured with a caliper on day 3, day 7, day 10, day 14, day 17, and day 21 after the administration. The ability of the compounds to inhibit tumor growth was evaluated according to the tumor growth inhibition rate (TGI) = 1 - (tumor volume on day 28 in treatment group - tumor volume on day 1 in treatment group)/(tumor volume on day 28 in control group - tumor volume on day 1 in control group). The toxicity of the compounds was evaluated according to the body weight and state of the mice.
# The groups were as follows: 1) solvent control group; 2) PD-1+Reg group; 3) Compound 1 group; 4) Reference Compound group; 5) compound 1 (10mg/kg) and PD-1+Reg Combination group; 6) compound 1 (30mg/kg) and PD-1+Reg Combination group; 7) compound 1 (90mg/kg) and PD-1+Reg Combination group; 8) Reference Compound (10mg/kg) and PD-1+Reg Combination group; 9) Reference Compound (30mg/kg) and PD-1+Reg Combination group; 10) Reference Compound (90mg/kg) and PD-1+Reg Combination group, with 6 mice per group.
# Reg represents Regorafenib PD-1 represents an anti-PD-1 antibody; IV represents administration via intravenous injection; PO represents oral administration; QD represents once-daily administration; QW represents once-weekly administration; CR represents complete remission (complete disappearance of the tumor after the dosing cycle is completed); PR represents partial response (tumor volume reduction exceeding 30% relative to the initial volume upon completion of the administration cycle); SD represents stable disease (tumor volume reduction or growth not exceeding 30% relative to the initial volume upon completion of the administration cycle); Died represents mouse died before the dosing cycle is completed; Administration period* is once daily (QD) for 10 consecutive days, followed by a 16-day off-treatment period; the once-weekly (QW) regimen is administered only on Day 1 and Day 8.
# [6] = tested on: Jurkat cell; assay: Inhibition of cell proliferation (CTG, intracellular ATP); format: cell-based; conditions: 72 h
# Procedure: Jurkat or 293T cells were seeded into a 96-well plate at 3000 cells/well. After overnight adherence culture, the serially diluted compound in DMSO was added. After 72 h, the intracellular ATP level was determined by CTG. The IC50 for the inhibition of cell proliferation by the compounds was calculated compared to the DMSO group. Table 7. Inhibitory activity of compounds of the present disclosure against Jurkat/293T cell proliferation (IC50, µM)
# [7] = target: T1, HDAC10 (Homo sapiens, UniProt Q969S8); conditions: read-out: IC50 HDAC subtype 10; Table 6
# T1 sequence (Q969S8 1-669): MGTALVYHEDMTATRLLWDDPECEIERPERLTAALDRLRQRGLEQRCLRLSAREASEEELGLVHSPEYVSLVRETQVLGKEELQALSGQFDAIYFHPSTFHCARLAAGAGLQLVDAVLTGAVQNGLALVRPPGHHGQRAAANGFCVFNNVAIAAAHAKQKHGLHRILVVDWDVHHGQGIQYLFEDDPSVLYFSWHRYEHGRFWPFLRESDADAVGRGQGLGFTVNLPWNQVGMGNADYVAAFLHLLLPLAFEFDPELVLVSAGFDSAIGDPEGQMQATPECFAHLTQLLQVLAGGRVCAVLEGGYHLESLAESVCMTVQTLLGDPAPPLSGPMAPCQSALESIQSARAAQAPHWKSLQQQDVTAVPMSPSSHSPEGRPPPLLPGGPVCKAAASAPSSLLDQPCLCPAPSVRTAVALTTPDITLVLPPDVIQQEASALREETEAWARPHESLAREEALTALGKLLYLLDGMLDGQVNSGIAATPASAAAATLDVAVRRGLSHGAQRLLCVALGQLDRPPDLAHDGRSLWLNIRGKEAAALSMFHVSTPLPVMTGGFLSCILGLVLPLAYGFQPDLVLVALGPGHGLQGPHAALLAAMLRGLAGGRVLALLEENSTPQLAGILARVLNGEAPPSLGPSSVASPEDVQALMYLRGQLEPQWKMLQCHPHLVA
# Procedure: as §2, §3
# [8] = Stability in liver microsomes; format: in vitro ADME; conditions: for T1/2: 1 µM compound, 37 °C, NADPH regeneration system; for Clint: 1 µM
# Procedure: After the 1 µM compound was individually incubated at 37 °C for various durations with […] liver microsomes from humans, monkeys, beagles, rats, or mice in the presence of an NADPH regeneration system, LC-MS-MS was used to analyze the remaining amount of the compound, and T1/2 was calculated. Table 10. Evaluation results of stability of compounds of the present disclosure in human and mouse liver microsomes
# [9] = tested on: Acetyl lysine; assay: Intracellular acetyl lysine level by ELISA in HeLa cells; format: cell-based; conditions: 24 h of treatment
# Procedure: (§1) HeLa cells were seeded into a 96-well plate at 20000 cells/well. After overnight adherence culture, the serially diluted compound was added. After 24 h of treatment, intracellular levels of acetyl lysine and H3K 27 acetyl lysine were quantified by ELISA. Table 8. Effect of compound of the present disclosure on levels of acetyl lysine and H3K 27 acetyl lysine
# [10] = tested on: H3K 27 Acetyl lysine; assay: Intracellular H3K 27 acetyl lysine level by ELISA in HeLa cells; format: cell-based; conditions: 24 h of treatment
# Procedure: as §1
# HDAC3, sequence (O15379 whole entry, species assumed): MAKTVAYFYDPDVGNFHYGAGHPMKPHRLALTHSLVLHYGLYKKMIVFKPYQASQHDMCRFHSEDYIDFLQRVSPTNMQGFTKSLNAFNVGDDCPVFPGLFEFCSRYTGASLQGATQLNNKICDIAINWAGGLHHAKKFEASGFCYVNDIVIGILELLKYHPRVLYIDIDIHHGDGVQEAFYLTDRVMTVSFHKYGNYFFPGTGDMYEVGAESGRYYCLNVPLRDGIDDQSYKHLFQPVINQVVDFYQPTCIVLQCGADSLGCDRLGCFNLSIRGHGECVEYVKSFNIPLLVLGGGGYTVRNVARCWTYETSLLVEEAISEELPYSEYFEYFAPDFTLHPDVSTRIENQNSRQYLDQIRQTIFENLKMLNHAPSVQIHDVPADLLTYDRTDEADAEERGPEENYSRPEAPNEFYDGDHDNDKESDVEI
# HDAC3, sequence (Q9Y618 395-489 partner limits assumed, species assumed): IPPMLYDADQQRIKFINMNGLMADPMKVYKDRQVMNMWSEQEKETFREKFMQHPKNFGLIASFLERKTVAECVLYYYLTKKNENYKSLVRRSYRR
# HDAC1, sequence (Q13547 whole entry, species assumed): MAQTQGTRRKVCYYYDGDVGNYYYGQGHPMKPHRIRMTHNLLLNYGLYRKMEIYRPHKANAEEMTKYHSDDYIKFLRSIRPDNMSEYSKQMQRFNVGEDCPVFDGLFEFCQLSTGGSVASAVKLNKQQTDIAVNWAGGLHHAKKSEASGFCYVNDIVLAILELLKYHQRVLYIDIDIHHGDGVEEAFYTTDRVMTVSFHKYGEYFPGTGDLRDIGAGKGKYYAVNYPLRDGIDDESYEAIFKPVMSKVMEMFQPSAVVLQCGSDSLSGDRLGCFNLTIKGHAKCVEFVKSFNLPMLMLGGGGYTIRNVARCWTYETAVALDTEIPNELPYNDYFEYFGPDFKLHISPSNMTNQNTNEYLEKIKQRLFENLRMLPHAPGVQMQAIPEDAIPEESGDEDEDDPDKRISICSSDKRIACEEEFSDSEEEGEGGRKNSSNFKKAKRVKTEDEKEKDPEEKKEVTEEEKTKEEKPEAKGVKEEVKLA
# HDAC2, sequence (Q92769 whole entry, species assumed): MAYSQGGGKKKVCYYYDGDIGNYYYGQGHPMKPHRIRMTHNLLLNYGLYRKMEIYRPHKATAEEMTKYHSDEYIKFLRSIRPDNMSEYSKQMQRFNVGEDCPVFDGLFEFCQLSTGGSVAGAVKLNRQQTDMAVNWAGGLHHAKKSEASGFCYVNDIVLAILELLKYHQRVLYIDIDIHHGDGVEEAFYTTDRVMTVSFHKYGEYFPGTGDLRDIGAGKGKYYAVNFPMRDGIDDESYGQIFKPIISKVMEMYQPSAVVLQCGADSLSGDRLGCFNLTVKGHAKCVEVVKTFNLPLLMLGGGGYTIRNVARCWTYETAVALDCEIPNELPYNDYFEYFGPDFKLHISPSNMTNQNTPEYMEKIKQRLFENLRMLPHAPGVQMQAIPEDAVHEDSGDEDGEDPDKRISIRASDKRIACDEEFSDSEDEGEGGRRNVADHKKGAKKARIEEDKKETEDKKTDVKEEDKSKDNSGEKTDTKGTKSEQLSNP
structure (smiles),measurement,setting,value
"CS(=O)(=O)Nc1ccc(C(=O)Nc2cc(-c3ccc(F)cc3)ccc2N)cc1 [Reference Compound, N-(4-amino-4'-fluoro-[1,1'-biphenyl]-3-yl)-4-(S-methylsulfonamido) benzamide, reference compound]",IC50,"[1]; Table 5, read-out: IC50 HDAC1",0.03 to 0.3 µM
same,IC50,"[1]; Table 6, read-out: IC50 HDAC subtype 1",0.0444 µM
same,Change in body weight(%),[2]; monotherapy 30 mg/kg QD PO,4.73±1.54%
same,"Tumor response, number of mice (CR/PR/SD)",[2]; monotherapy 30 mg/kg QD PO,1PR
same,TGI(%),[2]; monotherapy 30 mg/kg,56.10%
same,Change in body weight(%),[2]; monotherapy 90 mg/kg QD PO,-3.53±2.89%
same,"Tumor response, number of mice (CR/PR/SD)",[2]; monotherapy 90 mg/kg QD PO,1PR+2SD
same,TGI(%),[2]; monotherapy 90 mg/kg,95.93%
same,IC50,"[3]; Table 5, read-out: IC50 HDAC2",0.03 to 0.3 µM
same,IC50,"[3]; Table 6, read-out: IC50 HDAC subtype 2",0.178 µM
same,IC50,"[4]; Table 5, read-out: IC50 HDAC3",> 3 µM
same,IC50,"[4]; Table 6, read-out: IC50 HDAC subtype 3",8.28 µM
same,Change in body weight(%),[5]; monotherapy 90 mg/kg QD PO,17.04 ± 1.54%
same,"Tumor response, number of mice (CR/PR/SD)","[5]; monotherapy 90 mg/kg QD PO, CR complete remission, PR partial response, SD stable disease, 6 mice per group",1PR
same,TGI(%),"[5]; monotherapy 90 mg/kg, QD for 10 consecutive days, PO",73.90%
same,IC50,[6],1.94 µM
same,IC50,[7],0.0832 µM
same,Clliver,[8]; Human liver microsomes,0.7008 L/h/kg
same,T1/2,[8]; Human liver microsomes,1.082 h
same,Clint,[8]; Human liver microsomes,1.607 L/h/kg
same,Clliver,[8]; Mouse liver microsomes,0.552 L/h/kg
same,T1/2,[8]; Mouse liver microsomes,8.874 h
same,Clint,[8]; Mouse liver microsomes,0.615 L/h/kg
same,Acetyl lysine Maximum (%),[9],350%
same,Acetyl lysine Minimum effective concentration,[9],80 nM
same,H3K 27 Acetyl lysine Maximum (%),[10],190%
same,H3K 27 Acetyl lysine Minimum effective concentration,[10],80 nM
